Data taken from the kinase profiling compilation of Christmann-Franck et al. (2016).

What was measured:
Experiment in all cases: KINOMEscan competition binding
Conditions in all cases: compound 10.0 µM
ACVR1B (human) = ACVR1B (human) (UniProt P36896)
ADCK4 (human) = ADCK4 (human) (UniProt Q96D53)
AURKA (human) = AURKA (human) (UniProt O14965)
CDK16 (human) = CDK16 (human) (UniProt Q00536)
CDK7 (human) = CDK7 (human) (UniProt P50613)
CLK1 (human) = CLK1 (human) (UniProt P49759)
CLK3 (human) = CLK3 (human) (UniProt P49761)
CSNK1E (human) = CSNK1E (human) (UniProt P49674)
DCLK1 (human) = DCLK1 (human) (UniProt O15075)
DDR2 (human) = DDR2 (human) (UniProt Q16832)
EPHA2 (human) = EPHA2 (human) (UniProt P29317)
Sequence of EPHA2 (human) (P29317 whole entry, looked up): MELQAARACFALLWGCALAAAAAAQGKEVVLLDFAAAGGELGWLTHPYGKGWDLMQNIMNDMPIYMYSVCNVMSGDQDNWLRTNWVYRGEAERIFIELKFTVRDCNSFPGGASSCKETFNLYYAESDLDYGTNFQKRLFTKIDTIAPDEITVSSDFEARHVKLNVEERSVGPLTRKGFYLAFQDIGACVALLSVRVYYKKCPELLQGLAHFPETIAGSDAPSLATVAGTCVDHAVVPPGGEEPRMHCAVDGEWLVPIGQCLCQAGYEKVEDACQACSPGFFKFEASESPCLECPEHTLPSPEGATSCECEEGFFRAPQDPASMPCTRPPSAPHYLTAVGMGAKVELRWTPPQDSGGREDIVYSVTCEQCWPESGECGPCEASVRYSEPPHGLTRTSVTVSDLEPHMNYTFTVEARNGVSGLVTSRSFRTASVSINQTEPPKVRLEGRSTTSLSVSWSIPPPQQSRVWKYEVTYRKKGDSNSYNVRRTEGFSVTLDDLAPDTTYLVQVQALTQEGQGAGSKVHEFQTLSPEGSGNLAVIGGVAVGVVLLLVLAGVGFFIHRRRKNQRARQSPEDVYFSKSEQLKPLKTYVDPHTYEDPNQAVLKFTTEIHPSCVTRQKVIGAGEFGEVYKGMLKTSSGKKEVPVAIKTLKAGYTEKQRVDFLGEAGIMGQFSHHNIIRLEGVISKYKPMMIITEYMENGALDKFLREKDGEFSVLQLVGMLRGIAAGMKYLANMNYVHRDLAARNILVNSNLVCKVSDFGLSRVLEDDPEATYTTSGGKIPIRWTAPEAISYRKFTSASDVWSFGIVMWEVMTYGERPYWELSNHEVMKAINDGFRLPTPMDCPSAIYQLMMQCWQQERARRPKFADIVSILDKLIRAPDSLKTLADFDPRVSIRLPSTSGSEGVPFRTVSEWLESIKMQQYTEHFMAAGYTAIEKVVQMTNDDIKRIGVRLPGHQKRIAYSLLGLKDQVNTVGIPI

EPHA3 (human) = EPHA3 (human) (UniProt P29320)
EPHB1 (human) = EPHB1 (human) (UniProt P54762)
ERBB2 (human) = ERBB2 (human) (UniProt P04626)
FER (human) = FER (human) (UniProt P16591)
FGFR2 (human) = FGFR2 (human) (UniProt P21802)
FLT4 (human) = FLT4 (human) (UniProt P35916)
Sequence of FLT4 (human) (P35916 whole entry, looked up): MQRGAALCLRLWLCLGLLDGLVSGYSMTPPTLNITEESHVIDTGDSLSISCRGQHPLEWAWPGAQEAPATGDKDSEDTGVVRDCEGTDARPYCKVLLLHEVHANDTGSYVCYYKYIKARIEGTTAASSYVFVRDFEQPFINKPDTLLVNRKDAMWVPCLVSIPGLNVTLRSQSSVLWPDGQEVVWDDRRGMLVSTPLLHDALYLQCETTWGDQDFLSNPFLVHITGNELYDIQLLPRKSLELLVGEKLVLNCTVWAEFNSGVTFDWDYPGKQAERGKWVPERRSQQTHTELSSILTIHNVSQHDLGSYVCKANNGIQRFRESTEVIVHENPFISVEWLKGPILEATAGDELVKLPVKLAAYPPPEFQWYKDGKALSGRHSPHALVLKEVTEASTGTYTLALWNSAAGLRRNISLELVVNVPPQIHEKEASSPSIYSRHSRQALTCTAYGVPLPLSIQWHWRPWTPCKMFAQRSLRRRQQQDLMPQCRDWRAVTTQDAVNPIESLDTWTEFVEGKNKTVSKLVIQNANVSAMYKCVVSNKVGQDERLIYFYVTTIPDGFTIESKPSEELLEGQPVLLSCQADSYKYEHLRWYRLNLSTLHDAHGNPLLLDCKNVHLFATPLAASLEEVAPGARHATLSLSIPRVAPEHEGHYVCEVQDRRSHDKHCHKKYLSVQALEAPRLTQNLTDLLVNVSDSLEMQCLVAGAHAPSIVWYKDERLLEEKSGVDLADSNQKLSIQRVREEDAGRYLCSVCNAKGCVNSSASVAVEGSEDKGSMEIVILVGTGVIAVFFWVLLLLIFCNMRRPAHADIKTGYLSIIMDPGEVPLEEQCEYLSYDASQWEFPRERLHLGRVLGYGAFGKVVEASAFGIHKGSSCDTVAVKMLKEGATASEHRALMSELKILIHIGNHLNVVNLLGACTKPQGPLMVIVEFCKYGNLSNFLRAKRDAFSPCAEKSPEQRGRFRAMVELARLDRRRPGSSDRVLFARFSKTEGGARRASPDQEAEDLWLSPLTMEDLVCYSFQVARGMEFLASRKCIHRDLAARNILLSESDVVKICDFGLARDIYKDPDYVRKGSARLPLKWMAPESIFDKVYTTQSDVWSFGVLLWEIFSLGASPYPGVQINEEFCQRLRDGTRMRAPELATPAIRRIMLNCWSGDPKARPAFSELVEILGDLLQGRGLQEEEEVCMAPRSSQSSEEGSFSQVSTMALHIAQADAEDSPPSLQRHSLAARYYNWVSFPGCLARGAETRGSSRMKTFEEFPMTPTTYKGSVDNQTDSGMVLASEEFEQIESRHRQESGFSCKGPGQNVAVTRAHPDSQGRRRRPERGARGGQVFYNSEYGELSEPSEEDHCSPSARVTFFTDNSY

[1] = test system: KIT (human), P10721 [V559D]
Sequence of KIT (human), P10721 [V559D] (P10721 whole entry V559D, looked up): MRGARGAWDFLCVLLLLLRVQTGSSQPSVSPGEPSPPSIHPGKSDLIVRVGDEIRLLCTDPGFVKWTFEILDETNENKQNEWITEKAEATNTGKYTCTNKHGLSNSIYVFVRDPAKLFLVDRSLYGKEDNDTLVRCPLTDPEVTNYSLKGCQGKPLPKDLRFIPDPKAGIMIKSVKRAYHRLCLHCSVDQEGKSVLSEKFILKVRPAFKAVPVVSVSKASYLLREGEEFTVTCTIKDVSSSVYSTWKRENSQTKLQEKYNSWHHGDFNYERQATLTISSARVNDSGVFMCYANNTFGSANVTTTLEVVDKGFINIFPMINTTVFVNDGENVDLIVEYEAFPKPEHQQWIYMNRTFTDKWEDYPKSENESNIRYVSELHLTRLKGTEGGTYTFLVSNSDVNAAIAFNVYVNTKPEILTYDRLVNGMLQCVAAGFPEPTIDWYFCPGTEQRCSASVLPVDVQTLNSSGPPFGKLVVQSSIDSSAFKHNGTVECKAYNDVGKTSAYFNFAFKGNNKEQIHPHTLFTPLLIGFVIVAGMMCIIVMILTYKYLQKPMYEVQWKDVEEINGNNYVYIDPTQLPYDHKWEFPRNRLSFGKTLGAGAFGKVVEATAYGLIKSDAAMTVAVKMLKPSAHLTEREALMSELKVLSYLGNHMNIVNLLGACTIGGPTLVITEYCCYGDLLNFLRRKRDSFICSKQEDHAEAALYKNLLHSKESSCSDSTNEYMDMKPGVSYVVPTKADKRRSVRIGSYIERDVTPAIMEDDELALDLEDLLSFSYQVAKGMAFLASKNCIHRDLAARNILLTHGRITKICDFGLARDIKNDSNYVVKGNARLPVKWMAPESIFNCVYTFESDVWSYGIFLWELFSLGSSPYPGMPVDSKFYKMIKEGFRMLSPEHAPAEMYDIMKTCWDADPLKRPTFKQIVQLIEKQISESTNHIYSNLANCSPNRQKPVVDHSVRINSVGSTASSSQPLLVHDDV

MAP4K2 (human) = MAP4K2 (human) (UniProt Q12851)
MAPK7 (human) = MAPK7 (human) (UniProt Q13164)
MAPK8 (human) = MAPK8 (human) (UniProt P45983)
MKNK2 (human) = MKNK2 (human) (UniProt Q9HBH9)
MST1R (human) = MST1R (human) (UniProt Q04912)
MUSK (human) = MUSK (human) (UniProt O15146)
PDPK1 (human) = PDPK1 (human) (UniProt O15530)
PLK3 (human) = PLK3 (human) (UniProt Q9H4B4)
PRKAA2 (human) = PRKAA2 (human) (UniProt P54646)
PRKACB (human) = PRKACB (human) (UniProt P22694)
PRKD3 (human) = PRKD3 (human) (UniProt O94806)
RPS6KA1 KD2 (human) = RPS6KA1 KD2 (human) (UniProt Q15418)
RPS6KA2 KD2 (human) = RPS6KA2 KD2 (human) (UniProt Q15349)
SGK110 (human) = SGK110 (human) (UniProt P0C264)
SIK2 (human) = SIK2 (human) (UniProt Q9H0K1)
STK16 (human) = STK16 (human) (UniProt O75716)
Sequence of STK16 (human) (O75716 whole entry, looked up): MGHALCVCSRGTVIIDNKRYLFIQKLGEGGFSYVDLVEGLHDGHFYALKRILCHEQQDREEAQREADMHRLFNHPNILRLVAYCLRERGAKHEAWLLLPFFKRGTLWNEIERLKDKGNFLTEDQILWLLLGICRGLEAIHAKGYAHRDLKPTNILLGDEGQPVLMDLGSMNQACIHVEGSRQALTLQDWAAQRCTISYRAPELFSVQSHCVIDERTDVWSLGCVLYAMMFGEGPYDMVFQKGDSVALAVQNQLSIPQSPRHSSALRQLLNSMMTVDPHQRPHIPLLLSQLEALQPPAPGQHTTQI

STK17A (human) = STK17A (human) (UniProt Q9UEE5)
TESK1 (human) = TESK1 (human) (UniProt Q15569)
Sequence of TESK1 (human) (Q15569 whole entry, looked up): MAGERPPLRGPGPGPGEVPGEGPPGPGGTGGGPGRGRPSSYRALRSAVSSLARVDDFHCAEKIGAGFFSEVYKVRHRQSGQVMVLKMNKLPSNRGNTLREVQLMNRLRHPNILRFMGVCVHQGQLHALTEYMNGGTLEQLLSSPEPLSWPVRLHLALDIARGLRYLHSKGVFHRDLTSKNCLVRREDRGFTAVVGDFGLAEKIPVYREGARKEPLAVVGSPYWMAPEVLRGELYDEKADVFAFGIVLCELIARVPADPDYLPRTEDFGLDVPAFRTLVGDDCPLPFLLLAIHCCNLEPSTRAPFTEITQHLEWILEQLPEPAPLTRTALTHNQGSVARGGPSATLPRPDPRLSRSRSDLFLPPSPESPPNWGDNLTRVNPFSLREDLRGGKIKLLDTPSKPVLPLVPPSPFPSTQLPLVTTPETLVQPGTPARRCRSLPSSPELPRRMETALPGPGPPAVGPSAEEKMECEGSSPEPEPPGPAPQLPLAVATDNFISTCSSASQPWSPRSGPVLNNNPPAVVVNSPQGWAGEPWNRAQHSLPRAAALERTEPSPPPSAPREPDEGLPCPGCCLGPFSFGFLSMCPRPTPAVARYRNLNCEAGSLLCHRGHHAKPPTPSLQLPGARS

TNNI3K (human) = TNNI3K (human) (UniProt Q59H18)
Sequence of TNNI3K (human) (Q59H18 whole entry, looked up): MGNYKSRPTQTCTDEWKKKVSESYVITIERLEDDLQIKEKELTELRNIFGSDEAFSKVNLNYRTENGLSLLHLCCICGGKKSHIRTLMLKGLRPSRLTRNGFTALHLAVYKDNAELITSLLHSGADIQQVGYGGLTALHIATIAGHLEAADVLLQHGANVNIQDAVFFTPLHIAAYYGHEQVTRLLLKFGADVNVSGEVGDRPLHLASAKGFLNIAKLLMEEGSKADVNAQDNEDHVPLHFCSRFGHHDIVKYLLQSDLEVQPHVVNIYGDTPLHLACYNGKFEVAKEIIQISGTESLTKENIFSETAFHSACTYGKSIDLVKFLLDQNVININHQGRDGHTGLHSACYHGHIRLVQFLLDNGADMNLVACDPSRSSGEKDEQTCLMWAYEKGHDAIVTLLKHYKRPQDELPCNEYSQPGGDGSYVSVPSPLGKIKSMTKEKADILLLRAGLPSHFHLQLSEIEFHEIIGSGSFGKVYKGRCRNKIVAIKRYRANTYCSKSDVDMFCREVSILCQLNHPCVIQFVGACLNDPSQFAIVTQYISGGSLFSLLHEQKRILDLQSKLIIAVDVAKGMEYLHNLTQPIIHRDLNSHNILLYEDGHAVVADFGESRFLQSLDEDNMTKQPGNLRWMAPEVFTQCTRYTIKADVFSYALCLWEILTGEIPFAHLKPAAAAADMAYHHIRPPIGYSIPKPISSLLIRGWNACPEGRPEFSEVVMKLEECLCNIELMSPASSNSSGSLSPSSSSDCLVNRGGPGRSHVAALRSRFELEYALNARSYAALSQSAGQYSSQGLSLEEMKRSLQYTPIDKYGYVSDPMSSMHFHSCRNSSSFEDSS

ULK1 (human) = ULK1 (human) (UniProt O75385)
ULK2 (human) = ULK2 (human) (UniProt Q8IYT8)
WEE2 (human) = WEE2 (human) (UniProt P0C1S8)

Row | SMILES | kinase still bound, per cent of control (ACVR1B (human)) [%] | kinase still bound, per cent of control (ADCK4 (human)) [%] | kinase still bound, per cent of control (AURKA (human)) [%] | kinase still bound, per cent of control (CDK16 (human)) [%] | kinase still bound, per cent of control (CDK7 (human)) [%] | kinase still bound, per cent of control (CLK1 (human)) [%] | kinase still bound, per cent of control (CLK3 (human)) [%] | kinase still bound, per cent of control (CSNK1E (human)) [%] | kinase still bound, per cent of control (DCLK1 (human)) [%] | kinase still bound, per cent of control (DDR2 (human)) [%] | kinase still bound, per cent of control (EPHA2 (human)) [%] | kinase still bound, per cent of control (EPHA3 (human)) [%] | kinase still bound, per cent of control (EPHB1 (human)) [%] | kinase still bound, per cent of control (ERBB2 (human)) [%] | kinase still bound, per cent of control (FER (human)) [%] | kinase still bound, per cent of control (FGFR2 (human)) [%] | kinase still bound, per cent of control (FLT4 (human)) [%] | kinase still bound, per cent of control [1] [%] | kinase still bound, per cent of control (MAP4K2 (human)) [%] | kinase still bound, per cent of control (MAPK7 (human)) [%] | also measured
1 | CCN1CCN(Cc2ccc(Nc3ncc4c(n3)N(C)c3ccccc3C(=O)N4C)cc2C(F)(F)F)CC1 | 100 | 57 | 0.4 | 92 | 4 | 86 | 92 | 45 | 4.4 | 50 | 83 | 100 | 100 | 100 | 100 | 50 | 100 | 56 | 17 | 0.1 | kinase still bound, per cent of control (MAPK8 (human)): 100%; kinase still bound, per cent of control (MKNK2 (human)): 0.2%; kinase still bound, per cent of control (MST1R (human)): 100%; kinase still bound, per cent of control (MUSK (human)): 100%; kinase still bound, per cent of control (PDPK1 (human)): 100%; kinase still bound, per cent of control (PLK3 (human)): 100%; kinase still bound, per cent of control (PRKAA2 (human)): 5%; kinase still bound, per cent of control (PRKACB (human)): 100%; kinase still bound, per cent of control (PRKD3 (human)): 8%; kinase still bound, per cent of control (RPS6KA1 KD2 (human)): 23%; kinase still bound, per cent of control (RPS6KA2 KD2 (human)): 32%; kinase still bound, per cent of control (SGK110 (human)): 0.6%; kinase still bound, per cent of control (SIK2 (human)): 24%; kinase still bound, per cent of control (STK16 (human)): 15%; kinase still bound, per cent of control (STK17A (human)): 100%; kinase still bound, per cent of control (TESK1 (human)): 73%; kinase still bound, per cent of control (TNNI3K (human)): 78%; kinase still bound, per cent of control (ULK1 (human)): 0%; kinase still bound, per cent of control (ULK2 (human)): 0%; kinase still bound, per cent of control (WEE2 (human)): 64%
2 | N#Cc1c(NC(=O)c2cccc3ccccc23)sc2c1CCCC2 | 100 | 100 | 100 | 100 | 82 | 69 | 72 | 70 | 100 | 100 | 100 | 100 | 91 | 87 | 92 | 100 | 91 | 60 | 100 | 96 | kinase still bound, per cent of control (MAPK8 (human)): 60%; kinase still bound, per cent of control (MKNK2 (human)): 92%; kinase still bound, per cent of control (MST1R (human)): 95%; kinase still bound, per cent of control (MUSK (human)): 97%; kinase still bound, per cent of control (PDPK1 (human)): 81%; kinase still bound, per cent of control (PLK3 (human)): 100%; kinase still bound, per cent of control (PRKAA2 (human)): 84%; kinase still bound, per cent of control (PRKACB (human)): 80%; kinase still bound, per cent of control (PRKD3 (human)): 84%; kinase still bound, per cent of control (RPS6KA1 KD2 (human)): 78%; kinase still bound, per cent of control (RPS6KA2 KD2 (human)): 79%; kinase still bound, per cent of control (SGK110 (human)): 91%; kinase still bound, per cent of control (SIK2 (human)): 78%; kinase still bound, per cent of control (STK16 (human)): 89%; kinase still bound, per cent of control (STK17A (human)): 100%; kinase still bound, per cent of control (TESK1 (human)): 83%; kinase still bound, per cent of control (TNNI3K (human)): 52%; kinase still bound, per cent of control (ULK1 (human)): 100%; kinase still bound, per cent of control (ULK2 (human)): 98%; kinase still bound, per cent of control (WEE2 (human)): 70%
